The assay concerns maximum electroshock spasm (MES), extensor spasm in mice. Briefly: MES test (maximum electroshock; inhibition of extensor spasm). The conditions noted are these: oral; for ED 50 values (estimated values) / ED50 / ED 50 values: MES test, 1 hour after administration; for ED 50 values (estimated values): * estimated from several tests with different dosages; for responders at 100 mg/kg / ED50 / responders at 50 mg/kg / responders at 25 mg/kg: Mus musculus, po; for responders at 100 mg/kg / protective action [%] after 3 hrs / protective action [%] after 1 hr / responders at 50 mg/kg / responders at 25 mg/kg: n = 10; for ED50: read-out: ED 50 values. The class given is in vivo, male mice (NMRI). The source says: For the determination of the anticonvulsive/anti-epileptic activity of the substances according to the present invention the method described by E. A. Swinyard et al., J. Pharmacol. exp. Therapeut. 106, 319-330 (1952) and by L. A. Woodbury et al., Arch. int. Pharmacodyn., 92, 97-107 (1952) was used. To male mice (NMRI) with a body weight of 20-25 g via corneal electrodes, an alternating current of 50 Hz and 50 mA is applied for 0.2 sec. (HSE-shock stimulation apparatus; type 207). The maximum electroshock spasm (MES) consists of a tonic extension of the rear extremities, the clonic twitch and loss of consciousness. The activity criterion is taken as being the inhibition of the extensor spasm by the substances according to the present invention. Before the experiments the mice had free access to feed and water. The test substances were administered orally as suspensions in 0.2% agar by stomach tubes; the control animals received adequate volumes of agar. 1 hour and 3 hours after administration the test for protective action against MES was carried out.
As percentage action the percentage proportion of those animals which in the MES test were protected 100% against the extensor spasm is given. 10 animals were used per test.
The ED 50 values were determined according to Lichtfield and Wilcoxon J. Pharmacol. exp. Therapeut. 96, 99 (1949) in each case with 4 to 5 animal groups each of 8-10 animals per dosage stage.

[1] abbreviates: 1 h, 100 mg/kg, 1 hr after administration, read-out: protective action [%] after 1 hr.
The mark [2] stands for this setting: 3 h, 100 mg/kg, 3 hrs after administration, read-out: protective action [%] after 3 hrs.
The mark [3] stands for this setting: 50 mg/kg, 1 hr after administration.
The mark [4] stands for this setting: 50 mg/kg, 3 hrs after administration.
Setting [5] is: 100 mg/kg, 1 hr after administration.
Setting [6] is: 100 mg/kg, 3 hrs after administration.
Setting [7] is: 1 h, 50 mg/kg, 1 hr after administration, read-out: protective action [%] after 1 hr.
Setting [8] is: 3 h, 50 mg/kg, 3 hrs after administration, read-out: protective action [%] after 3 hrs.

Molecules are shown by their SMILES. Counter-ions that a name gives are not always drawn. Like-named read-outs stand apart in the source and are kept apart here.

Turning to `COC1=CC(=O)O[C@H]1[C@H](OC(=O)CN)c1ccc(Cl)cc1Cl` (relative stereo) [Example 130, threo-5-[2,4-dichlorophenyl-(glycyloxy)-methyl]-4-methoxy-2(5H)-furanone hydrobromide], the “ED 50 values (estimated values)” value was 40 to 50 mg/kg. Also, under setting [1], the responders at 100 mg/kg turned out to be 100%. The responders at 100 mg/kg under setting [2] stood at 100%.
As to `COC1=CC(=O)O[C@H]1[C@H](OC(=O)CCCN)c1ccccc1Cl` (relative stereo) [Example 114, threo-5-[4-aminobutanoyloxy-(2-chlorophenyl)-methyl]-4-methoxy-2(5H)-furanone hydrochloride], where the note is “50 mg/kg, 3 hrs after administration, hydrochloride”, the “protective action [%] after 3 hrs” value turned out to be 30%. Moreover, the ED50 (1 h) came out at 40 mg/kg.
As to `COC1=CC(=O)O[C@H]1[C@H](OC(=O)CN)c1ccccc1` (relative stereo) [Example 105, threo-5-[glycyloxy-(phenyl)-methyl]-4-methoxy-2(5H)-furanone hydrobromide], the responders at 100 mg/kg was found to be 70% under setting [1] and 0% under setting [2]. Besides, the ED50 (1 h) worked out at 87.5 mg/kg.
For `COC1=CC(=O)O[C@H]1[C@H](OC(=O)CNC(C)=O)c1ccc(Cl)cc1Cl` (relative stereo) [Example 132, threo-5-[N-acetylglycyloxy-(2,4-dichlorophenyl)-methyl]-4-methoxy-2(5H)-furanone], the responders at 100 mg/kg reads like this: under setting [1], 20%; under setting [2], 50%.
As for `COC1=CC(=O)O[C@H]1[C@H](OC(=O)[C@@H]1CCCN1)c1ccccc1Cl` [103 B], the responders at 100 mg/kg reads like this: under setting [1], 50%; under setting [2], 0%. Besides, the ED50 (1 h) amounted to 95 mg/kg.
For `COC1=CC(=O)OC1C(OC(=O)CNC(C)=O)c1ccccc1Cl` (single isomer, unassigned; (+)) [Example 150], the “ED 50 values” was determined as 14.4 mg/kg. The “protective action [%] after 1 hr” value under setting [3] amounted to 100%. Besides, under setting [4], the “protective action [%] after 3 hrs” value is 100%.
As for `Br.COC1=CC(=O)OC1C(OC(=O)CN)c1ccccc1Cl` (single isomer, unassigned; (+)) [Example 151, (+)-threo-5-[2-chlorophenyl-(glycyloxy)-methyl]-4-methoxy-2(5H)-furanone hydrobromide], the “ED 50 values” is listed as 12.2 mg/kg. Under setting [3], the “protective action [%] after 1 hr” value is 100%. Under setting [4], the “protective action [%] after 3 hrs” value was 100%.
For the molecule `COC1=CC(=O)O[C@H]1[C@H](OC(=O)[C@@H]1CCCN1)c1ccccc1Cl` [104 B], the “protective action [%] after 1 hr” value under setting [5] amounted to 60%. The “protective action [%] after 3 hrs” value under setting [6] was 0%. The “ED 50 values” (60 min) came out at 105 mg/kg.
Regarding `COC1=CC(=O)O[C@H]1[C@H](OC(=O)CCCNC(C)=O)c1ccccc1Cl` (relative stereo) [Example 115, threo-5-[4-(N-acetylamino)-butanoyloxy-(2-chlorophenyl)methyl]-4-methoxy-2(5H)-furanone], the “ED 50 values (estimated values)” value was 30 to 40 mg/kg. Moreover, under setting [1], the responders at 100 mg/kg amounted to 100%. Also, under setting [2], the responders at 100 mg/kg turned out to be 100%.
Consider `COC1=CC(=O)OC1C(OC(=O)[C@@H]1CCCN1)c1ccccc1C(F)(F)F` (single isomer, unassigned) [139 A], for which the “ED 50 values (estimated values)” value is 15 to 20 mg/kg. Further, the responders at 50 mg/kg under setting [7] was determined as 100%. Also, the responders at 50 mg/kg under setting [8] stood at 50%.
For the molecule `COC1=CC(=O)O[C@H]1[C@H](OC(=O)C1(N)CCCCC1)c1ccccc1Cl` (relative stereo) [Example 157, threo-5-[1-amino-1-cyclohexylcarbonyloxy-(2-chlorophenyl)-methyl]-4-methoxy-2(5H)-furanone hydrobromide], the responders at 100 mg/kg was 100% under setting [1] and 40% under setting [2]. The ED50 (1 h) was found to be 27.5 mg/kg.
In the case of `COC1=CC(=O)O[C@H]1[C@H](OC(=O)C(C)(C)N)c1ccccc1Cl` (relative stereo) [Example 155, threo-5-[2-chlorophenyl-(2-methylalanyloxy)-methyl]-4-methoxy-2(5H)-furanone-hydrobromide], the “ED 50 values (estimated values)” value is 20 to 30 mg/kg. For the setting “1 h, 1 hr after administration, read-out: protective action [%] after 1 hr”, the responders at 25 mg/kg turned out to be 50%. For the same molecule, the responders at 25 mg/kg (3 h, 3 hrs after administration, read-out: protective action [%] after 3 hrs) amounted to 10%.
Take `COC1=CC(=O)OC1C(OC(=O)[C@@H]1CCCN1)c1ccccc1C` (single isomer, unassigned) [141 A]: the “ED 50 values (estimated values)” value is 110 to 120 mg/kg. The responders at 100 mg/kg under setting [1] worked out at 40%. In addition, under setting [2], the responders at 100 mg/kg stood at 10%.
The like results for `COC1=CC(=O)OC1C(OC(=O)[C@@H](N)c1ccccc1)c1ccccc1` (single isomer, unassigned) [108 A] were, in that order, 70 to 80 mg/kg, 90% and 0%.
As for `COC1=CC(=O)OC1C(OC(=O)[C@@H](N)c1ccccc1)c1ccccc1Cl` (single isomer, unassigned) [117 B], under setting [3], the “protective action [%] after 1 hr” value is on record as 90%. Moreover, under setting [4], the “protective action [%] after 3 hrs” value amounted to 0%. Further, the “ED 50 values” (60 min) is 25.3 mg/kg.
For the molecule `COC1=CC(=O)OC1C(OC(=O)[C@@H]1CCCN1)c1ccccc1C(F)(F)F` (some centres unmarked) [139 B], the responders at 100 mg/kg was determined as 40% under setting [1] and 10% under setting [2].
Turning to `COC1=CC(=O)OC1C(OC(=O)CNC(=O)C(C)(C)C)c1ccccc1Cl` (single isomer, unassigned; (+)) [Example 152, (+)-threo-5-[2-chlorophenyl-(N-pivaloylglycyloxy)-methyl]-4-methoxy-2(5H)-furanone], the “ED 50 values” came out at 16.3 mg/kg. The “protective action [%] after 1 hr” value under setting [3] was 100%. Further, under setting [4], the “protective action [%] after 3 hrs” value was 90%.
As for `COC1=CC(=O)O[C@@H]1[C@@H](OC(=O)[C@@H]1CCCN1)c1ccccc1Cl` [104 A], the responders at 50 mg/kg stood at 100% under setting [7] and 100% under setting [8].
In the case of `COC1=CC(=O)OC1C(OC(=O)[C@@H](N)c1ccccc1)c1ccccc1Cl` (single isomer, unassigned) [117 A], the “protective action [%] after 3 hrs” value under setting [4] stood at 100%. Moreover, under setting [7], the responders at 50 mg/kg came out at 100%. The ED50 (1 h) was determined as 16 mg/kg.
For the molecule `COC1=CC(=O)O[C@H]1[C@H](OC(=O)CN)c1ccc(Cl)cc1Cl` (relative stereo) [Example 131, threo-5-[2,4-dichlorophenyl-(glycyloxy)-methyl]-4-methoxy-2(5H)-furanone hydrochloride], the ED50 (1 h) was determined as 54.5 mg/kg.
Turning to `COC1=CC(=O)OC1C(OC(=O)[C@@H]1CCCN1)c1ccc(Cl)cc1Cl` (single isomer, unassigned) [135 A], the “ED 50 values (estimated values)” value was 65 to 75 mg/kg. Moreover, the responders at 100 mg/kg under setting [1] stood at 100%. Moreover, the responders at 100 mg/kg under setting [2] is 100%.
`COC1=CC(=O)OC1C(OC(=O)[C@@H]1CCCN1)c1ccccc1F` (single isomer, unassigned) [129 B]: the “ED 50 values (estimated values)” value was 95 to 105 mg/kg. Further, the “protective action [%] after 1 hr” value under setting [5] came to 50%. For the same molecule, the “protective action [%] after 3 hrs” value under setting [6] was determined as 0%.
As for `COC1=CC(=O)OC1C(OC(=O)[C@@H]1CCCN1C(=O)OCc1ccccc1)c1ccccc1C(F)(F)F` (single isomer, unassigned) [138 A], the responders at 100 mg/kg by setting is: under setting [1], 30%; under setting [2], 20%.
As for `COC1=CC(=O)OC1C(OC(=O)[C@@H](N)CCC(N)=O)c1ccccc1Cl` (single isomer, unassigned) [122 A], the “ED 50 values (estimated values)” value is 15 to 20 mg/kg. For the same molecule, the responders at 50 mg/kg under setting [7] was found to be 100%. For the same molecule, the responders at 50 mg/kg under setting [8] stood at 100%.

These data come from patent US4965283A, “Amino acid esters, process for the preparation thereof and use thereof” (Dr. Willmar Schwabe GmbH & Co., priority 1987, dated 1990).
